Assay results as given in US7074789B2, “Kinase inhibitors” (Amgen Inc., priority 1999, dated 2006).
Read-outs that look alike come from different tables or passages of the source.

How the values were obtained:
Format in all cases: biochemical
Lck = biological target: T1, Lck (Homo sapiens, UniProt P06239); experiment: Kinase inhibition assay (33P transfer), Lck; conditions: read-out: Lck-1
T1 construct: Kinases are expressed as either kinase domains or full length constructs; made in house
Source text: (§1) The inhibitor compounds described herein are screened in the following manner. Kinases suitable for use in the following protocol to determine kinase activity of the compounds described herein include, -but are not limited to: Lck, Lyn, Src, Fyn, Syk, Zap-70, Itk, Tec, Btk, EGFR, ErbB2, Kdr, Flt-1, Flt-3, Tek, c-Met, InsR, and AKT.
(§2) Kinases are expressed as either kinase domains or full length constructs fused to glutathione S-transferase (GST) or polyHistidine tagged fusion proteins in either E. colior Baculovirus-High Five expression systems. […] In some instances, kinases are co-expressed or mixed with purified or partially purified regulatory polypeptides prior to measurement of activity.
(§3) Briefly, The transfer of ^33PO4 from ATP to the synthetic substrates poly(Glu, Tyr) 4:1 or poly(Arg, Ser) 3:1 attached to the bioactive surface of microtiter plates serves as the basis to evaluate enzyme activity. After an incubation period, the amount of phosphate transferred is measured by first washing the plate with 0.5% phosphoric acid, adding liquid scintillant, and then counting in a liquid scintillation detector.

Itk = biological target: T2, Itk (Homo sapiens, UniProt Q08881); experiment: Kinase inhibition assay (33P transfer), Itk; conditions: read-out: Itk-1
T2 construct: Kinases are expressed as either kinase domains or full length constructs; made in house
T2 sequence (Q08881 1-620): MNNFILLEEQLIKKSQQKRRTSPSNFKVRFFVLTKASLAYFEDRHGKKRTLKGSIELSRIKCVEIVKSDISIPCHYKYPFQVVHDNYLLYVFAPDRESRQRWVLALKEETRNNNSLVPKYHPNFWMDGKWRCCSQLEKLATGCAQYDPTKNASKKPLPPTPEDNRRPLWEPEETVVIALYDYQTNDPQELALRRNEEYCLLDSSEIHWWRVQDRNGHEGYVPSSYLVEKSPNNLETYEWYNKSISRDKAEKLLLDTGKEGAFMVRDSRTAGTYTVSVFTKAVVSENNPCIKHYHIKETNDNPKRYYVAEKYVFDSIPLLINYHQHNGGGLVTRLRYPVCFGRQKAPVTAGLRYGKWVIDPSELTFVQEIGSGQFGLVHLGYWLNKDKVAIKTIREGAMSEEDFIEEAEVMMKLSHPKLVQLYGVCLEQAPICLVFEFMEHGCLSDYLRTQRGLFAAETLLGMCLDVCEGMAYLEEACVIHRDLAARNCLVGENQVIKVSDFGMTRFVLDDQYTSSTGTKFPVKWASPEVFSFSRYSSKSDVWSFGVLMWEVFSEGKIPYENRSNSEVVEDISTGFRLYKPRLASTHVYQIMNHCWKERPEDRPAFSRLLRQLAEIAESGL
Source text: as §1
(§4) Kinases are expressed as either kinase domains or full length constructs fused to glutathione S-transferase (GST) or polyHistidine tagged fusion proteins in either E. colior Baculovirus-High Five expression systems. They are purified to near homogeneity by affinity chromatography essentially as previously described (Lehr et al., 1996; Gish et al., 1995). In some instances, kinases are co-expressed or mixed with purified or partially purified regulatory polypeptides prior to measurement of activity.
as §3, with “Kinase activity and inhibition are measured essentially by established protocols (Braunwalder et al., 1996). Briefly,” for “Briefly,”, “detector. The IC50 is determined by the concentration of compound that causes a 50% reduction in the amount of […] incorporated onto the substrate bound to the plate.” for “detector.”

c-Met = biological target: T3, c-Met (Homo sapiens, UniProt P08581); experiment: Kinase inhibition assay (33P transfer), c-Met; conditions: Table 2, kinase inhibition class; read-out: Met-1
T3 construct: Kinases are expressed as either kinase domains or full length constructs; made in house
Source text: as §1, §4
as §3, with “Kinase activity and inhibition are measured essentially by established protocols (Braunwalder et al., 1996). Briefly,” for “Briefly,”, “detector. The IC50 is determined by the concentration of compound that causes a 50% reduction in the amount of […] incorporated onto the substrate bound to the plate.” for “detector.”

Kdr = biological target: T4, Kdr (Homo sapiens, UniProt P35968); experiment: Kinase inhibition assay (33P transfer), Kdr; conditions: read-out: KDR-1
T4 construct: Kinases are expressed as either kinase domains or full length constructs; made in house
Source text: as §1, §2, §3

EGFR = biological target: T5, EGFR (Homo sapiens, UniProt P00533); experiment: Kinase inhibition assay (33P transfer), EGFR; conditions: Table 2, kinase inhibition class; read-out: EGFR-1
T5 construct: Kinases are expressed as either kinase domains or full length constructs; made in house
Source text: as §1, §4
as §3, with “Kinase activity and inhibition are measured essentially by established protocols (Braunwalder et al., 1996). Briefly,” for “Briefly,”, “detector. The IC50 is determined by the concentration of compound that causes a 50% reduction in the amount of […] incorporated onto the substrate bound to the plate.” for “detector.”

AKT = biological target: T6, AKT (Homo sapiens, UniProt Q9Y243); experiment: Kinase inhibition assay (33P transfer), AKT; conditions: Table 2, kinase inhibition class; read-out: AKT3-1
T6 construct: Kinases are expressed as either kinase domains or full length constructs; made in house
Source text: as §1, §2, §3

Zap-70 = biological target: T7, Zap-70 (Homo sapiens, UniProt P43403); experiment: Kinase inhibition assay (33P transfer), Zap-70; conditions: read-out: Zap-1
T7 construct: Kinases are expressed as either kinase domains or full length constructs; made in house
T7 sequence (P43403 1-619): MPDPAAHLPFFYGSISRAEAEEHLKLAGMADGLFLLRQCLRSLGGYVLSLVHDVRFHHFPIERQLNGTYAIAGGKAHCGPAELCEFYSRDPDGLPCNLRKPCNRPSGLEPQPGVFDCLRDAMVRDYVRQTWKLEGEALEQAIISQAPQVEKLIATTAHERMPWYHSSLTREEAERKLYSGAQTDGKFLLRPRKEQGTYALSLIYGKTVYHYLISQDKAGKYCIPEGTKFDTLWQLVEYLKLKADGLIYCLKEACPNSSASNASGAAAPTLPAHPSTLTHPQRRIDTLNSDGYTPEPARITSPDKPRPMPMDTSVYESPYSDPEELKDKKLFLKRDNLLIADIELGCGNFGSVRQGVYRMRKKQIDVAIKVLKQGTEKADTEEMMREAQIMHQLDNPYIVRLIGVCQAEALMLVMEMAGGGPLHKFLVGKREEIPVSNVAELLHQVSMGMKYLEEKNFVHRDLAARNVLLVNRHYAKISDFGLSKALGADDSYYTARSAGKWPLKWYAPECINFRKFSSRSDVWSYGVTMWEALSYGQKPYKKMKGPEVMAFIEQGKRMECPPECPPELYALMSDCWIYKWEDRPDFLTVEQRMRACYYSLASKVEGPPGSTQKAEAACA
Source text: as §1, §2, §3

T3 sequence (P08581 25-1390): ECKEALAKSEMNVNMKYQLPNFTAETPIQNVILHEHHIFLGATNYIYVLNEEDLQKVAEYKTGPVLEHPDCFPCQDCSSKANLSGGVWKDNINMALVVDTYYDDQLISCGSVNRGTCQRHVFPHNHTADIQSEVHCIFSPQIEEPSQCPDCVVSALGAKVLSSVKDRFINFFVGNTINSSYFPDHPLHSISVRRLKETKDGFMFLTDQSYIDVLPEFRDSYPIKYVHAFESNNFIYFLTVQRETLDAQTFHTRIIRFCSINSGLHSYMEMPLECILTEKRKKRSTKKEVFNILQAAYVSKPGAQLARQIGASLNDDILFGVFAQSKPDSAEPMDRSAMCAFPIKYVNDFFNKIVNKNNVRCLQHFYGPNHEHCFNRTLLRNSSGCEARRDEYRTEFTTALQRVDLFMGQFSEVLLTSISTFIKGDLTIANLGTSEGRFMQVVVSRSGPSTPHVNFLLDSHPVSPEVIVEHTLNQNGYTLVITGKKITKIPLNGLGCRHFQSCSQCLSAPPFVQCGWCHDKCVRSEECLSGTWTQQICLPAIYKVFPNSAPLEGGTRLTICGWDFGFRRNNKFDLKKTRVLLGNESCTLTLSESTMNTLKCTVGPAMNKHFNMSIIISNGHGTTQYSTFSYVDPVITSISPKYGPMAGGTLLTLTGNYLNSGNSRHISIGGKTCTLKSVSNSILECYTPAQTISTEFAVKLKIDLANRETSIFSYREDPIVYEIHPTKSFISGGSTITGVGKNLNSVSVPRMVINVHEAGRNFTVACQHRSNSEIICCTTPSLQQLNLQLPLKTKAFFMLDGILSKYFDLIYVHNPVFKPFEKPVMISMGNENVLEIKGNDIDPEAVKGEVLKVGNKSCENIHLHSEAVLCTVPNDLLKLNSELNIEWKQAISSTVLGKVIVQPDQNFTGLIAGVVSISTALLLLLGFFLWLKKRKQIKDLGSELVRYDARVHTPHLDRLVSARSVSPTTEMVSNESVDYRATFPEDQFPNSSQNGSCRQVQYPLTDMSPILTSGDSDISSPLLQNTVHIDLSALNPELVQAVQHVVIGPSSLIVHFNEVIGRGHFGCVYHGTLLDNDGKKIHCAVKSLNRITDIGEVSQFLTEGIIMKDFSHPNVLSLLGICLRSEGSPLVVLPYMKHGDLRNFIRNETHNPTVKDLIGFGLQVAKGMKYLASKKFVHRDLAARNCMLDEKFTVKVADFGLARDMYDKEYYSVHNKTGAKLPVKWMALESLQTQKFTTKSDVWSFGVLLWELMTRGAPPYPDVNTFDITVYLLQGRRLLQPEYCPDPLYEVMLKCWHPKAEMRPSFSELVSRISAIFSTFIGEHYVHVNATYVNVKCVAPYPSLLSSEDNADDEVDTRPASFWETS
T4 sequence (P35968 20-1356, species assumed): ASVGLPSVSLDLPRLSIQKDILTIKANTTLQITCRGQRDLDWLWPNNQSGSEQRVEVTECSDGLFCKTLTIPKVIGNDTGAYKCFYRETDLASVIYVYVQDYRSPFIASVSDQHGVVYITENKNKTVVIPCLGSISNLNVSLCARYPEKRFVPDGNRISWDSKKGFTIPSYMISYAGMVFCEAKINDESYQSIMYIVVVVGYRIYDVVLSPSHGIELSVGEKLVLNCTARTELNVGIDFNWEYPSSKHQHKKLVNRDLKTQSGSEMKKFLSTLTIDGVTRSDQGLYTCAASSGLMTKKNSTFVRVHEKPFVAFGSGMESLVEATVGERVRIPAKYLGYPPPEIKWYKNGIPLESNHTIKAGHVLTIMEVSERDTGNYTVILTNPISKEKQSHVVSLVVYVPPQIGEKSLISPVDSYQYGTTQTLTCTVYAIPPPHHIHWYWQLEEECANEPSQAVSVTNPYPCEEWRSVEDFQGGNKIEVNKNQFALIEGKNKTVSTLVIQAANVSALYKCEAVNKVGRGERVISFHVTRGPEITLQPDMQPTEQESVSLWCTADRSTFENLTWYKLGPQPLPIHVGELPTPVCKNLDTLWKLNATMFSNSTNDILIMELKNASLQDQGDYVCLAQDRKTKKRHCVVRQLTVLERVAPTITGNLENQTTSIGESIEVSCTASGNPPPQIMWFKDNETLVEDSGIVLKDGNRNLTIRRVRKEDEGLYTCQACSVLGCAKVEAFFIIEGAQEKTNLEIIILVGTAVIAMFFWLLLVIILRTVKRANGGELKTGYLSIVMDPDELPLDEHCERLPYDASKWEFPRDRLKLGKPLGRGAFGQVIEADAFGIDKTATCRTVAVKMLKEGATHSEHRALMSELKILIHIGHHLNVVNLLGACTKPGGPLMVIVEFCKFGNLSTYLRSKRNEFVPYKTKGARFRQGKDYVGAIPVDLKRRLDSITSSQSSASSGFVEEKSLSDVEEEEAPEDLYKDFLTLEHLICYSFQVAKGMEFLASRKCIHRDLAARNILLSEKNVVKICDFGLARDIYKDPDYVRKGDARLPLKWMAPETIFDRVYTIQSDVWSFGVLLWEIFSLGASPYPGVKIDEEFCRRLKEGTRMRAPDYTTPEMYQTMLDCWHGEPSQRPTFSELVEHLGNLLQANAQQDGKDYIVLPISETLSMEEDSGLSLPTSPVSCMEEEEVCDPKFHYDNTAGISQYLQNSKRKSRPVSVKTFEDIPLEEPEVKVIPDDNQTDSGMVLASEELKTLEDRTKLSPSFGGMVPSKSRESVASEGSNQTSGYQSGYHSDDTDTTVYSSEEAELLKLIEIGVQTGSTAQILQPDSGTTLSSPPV
T1 sequence (P06239 whole entry, species assumed, the tested form may be a part): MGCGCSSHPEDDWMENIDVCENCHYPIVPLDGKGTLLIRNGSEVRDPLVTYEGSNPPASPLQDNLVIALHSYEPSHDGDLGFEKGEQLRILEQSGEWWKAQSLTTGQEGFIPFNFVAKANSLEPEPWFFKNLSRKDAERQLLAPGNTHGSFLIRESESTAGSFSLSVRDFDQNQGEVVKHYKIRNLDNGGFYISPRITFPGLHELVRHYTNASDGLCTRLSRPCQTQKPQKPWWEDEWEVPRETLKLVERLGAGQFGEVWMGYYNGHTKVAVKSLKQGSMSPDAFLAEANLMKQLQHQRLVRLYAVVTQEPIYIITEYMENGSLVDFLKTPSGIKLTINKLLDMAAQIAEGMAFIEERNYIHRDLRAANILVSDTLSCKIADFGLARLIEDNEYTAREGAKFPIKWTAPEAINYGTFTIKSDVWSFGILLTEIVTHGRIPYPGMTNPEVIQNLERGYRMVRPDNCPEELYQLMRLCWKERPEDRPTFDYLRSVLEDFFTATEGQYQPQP
T5 sequence (P00533 25-1210, species assumed): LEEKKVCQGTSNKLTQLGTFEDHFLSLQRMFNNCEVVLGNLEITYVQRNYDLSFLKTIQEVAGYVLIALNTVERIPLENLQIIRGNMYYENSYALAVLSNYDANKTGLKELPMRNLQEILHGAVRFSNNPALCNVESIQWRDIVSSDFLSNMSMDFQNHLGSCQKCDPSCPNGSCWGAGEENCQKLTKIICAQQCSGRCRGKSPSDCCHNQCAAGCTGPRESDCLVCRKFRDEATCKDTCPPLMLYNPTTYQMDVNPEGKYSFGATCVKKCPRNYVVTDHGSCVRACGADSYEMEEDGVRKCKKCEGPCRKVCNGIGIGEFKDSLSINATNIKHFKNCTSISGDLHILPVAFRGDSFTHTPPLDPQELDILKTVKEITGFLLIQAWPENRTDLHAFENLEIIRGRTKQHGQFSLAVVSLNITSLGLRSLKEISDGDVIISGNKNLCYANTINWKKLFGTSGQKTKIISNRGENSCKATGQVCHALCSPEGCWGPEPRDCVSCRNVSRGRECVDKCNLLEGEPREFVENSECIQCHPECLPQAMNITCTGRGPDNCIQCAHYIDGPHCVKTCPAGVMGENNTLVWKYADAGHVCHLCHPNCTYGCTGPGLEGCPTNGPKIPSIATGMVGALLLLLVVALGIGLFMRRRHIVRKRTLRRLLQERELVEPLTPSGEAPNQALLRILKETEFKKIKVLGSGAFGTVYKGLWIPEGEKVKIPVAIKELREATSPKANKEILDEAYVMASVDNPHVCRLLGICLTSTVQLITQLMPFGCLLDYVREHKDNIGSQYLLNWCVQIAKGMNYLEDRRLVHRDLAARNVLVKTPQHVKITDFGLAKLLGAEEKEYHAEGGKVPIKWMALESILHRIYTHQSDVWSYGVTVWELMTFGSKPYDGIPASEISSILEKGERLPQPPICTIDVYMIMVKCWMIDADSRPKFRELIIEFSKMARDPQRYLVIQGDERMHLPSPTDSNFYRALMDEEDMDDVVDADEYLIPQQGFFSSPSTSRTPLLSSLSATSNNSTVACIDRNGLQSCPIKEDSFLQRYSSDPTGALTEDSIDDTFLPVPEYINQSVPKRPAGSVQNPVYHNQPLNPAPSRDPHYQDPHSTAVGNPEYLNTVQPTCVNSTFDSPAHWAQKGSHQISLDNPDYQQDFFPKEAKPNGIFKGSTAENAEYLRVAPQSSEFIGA
T6 sequence (Q9Y243 whole entry, the tested form may be a part): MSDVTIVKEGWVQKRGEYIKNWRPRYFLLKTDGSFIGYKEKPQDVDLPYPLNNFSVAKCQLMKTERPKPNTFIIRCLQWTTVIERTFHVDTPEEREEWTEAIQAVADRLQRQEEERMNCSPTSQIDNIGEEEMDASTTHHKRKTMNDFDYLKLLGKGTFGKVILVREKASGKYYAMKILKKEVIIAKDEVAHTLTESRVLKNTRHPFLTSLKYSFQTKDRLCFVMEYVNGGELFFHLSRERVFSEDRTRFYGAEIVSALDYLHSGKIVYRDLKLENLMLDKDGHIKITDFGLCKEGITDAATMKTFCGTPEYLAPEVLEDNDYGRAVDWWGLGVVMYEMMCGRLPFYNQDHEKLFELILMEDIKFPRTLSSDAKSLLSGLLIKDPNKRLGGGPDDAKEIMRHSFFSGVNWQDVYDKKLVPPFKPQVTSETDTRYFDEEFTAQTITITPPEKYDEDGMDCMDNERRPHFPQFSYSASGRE

Row | Compound | IC50 (Lck; Table 3) [µM] | IC50 (Itk; Table 3) [µM] | IC50 (c-Met) [µM] | IC50 (Kdr; Table 3) [µM] | IC50 (EGFR) [µM] | IC50 (AKT) [µM] | IC50 (Zap-70; Table 3) [µM] | IC50 (Lck) [µM] | IC50 (Itk) [µM] | IC50 (Kdr) [µM] | IC50 (Zap-70) [µM]
1 | COc1cc(Nc2ncnc(-c3ccnc(NCCCN)c3)n2)cc(OC)c1OC [Compound 45] | 0.972 to 5.83 | > 10.9 | > 10.9 | > 10.9 | > 10.9 | > 10.9 | > 10.9 | – | – | – | –
2 | O=c1[nH]c2ccccc2n1-c1ncnc(Nc2ccccc2Cl)n1 [Compound 484] | – | – | 7.08 to 10.3 | – | 1.18 to 7.08 | > 13.3 | – | > 13.3 | > 13.3 | > 13.3 | > 13.3
3 | COc1cc(Nc2ncnc(-n3c(=O)sc4cc(Br)ccc43)n2)cc(OC)c1OC [Compound 426] | > 9.18 | > 9.18 | > 9.18 | > 9.18 | > 9.18 | > 9.18 | > 9.18 | – | – | – | –
4 | NC(=O)c1ccc(Nc2ncnc(-n3c(=O)[nH]c4ccccc43)n2)cc1 [Compound 419] | > 13 | > 13 | > 13 | 1.15 to 6.91 | > 13 | > 13 | > 13 | – | – | – | –
5 | COc1cc(Nc2ncnc(-c3ccc(N4CCNCC4)nc3)n2)cc(OC)c1OC [Compound 436] | > 10.6 | > 10.6 | > 10.6 | 8.26 to 10.6 | 8.26 to 10.6 | > 10.6 | > 10.6 | – | – | – | –
6 | C=CCNc1ncccc1-c1ncnc(Nc2ccc(C(N)=O)cc2)n1 [Compound 1081] | – | – | > 13 | – | > 13 | > 13 | – | 1.15 to 6.91 | > 13 | < 1.15 | > 13
7 | NC(=O)[C@H](CO)Nc1ncnc(-n2c(=O)[nH]c3ccccc32)n1 [Compound 450] | > 14.3 | > 14.3 | > 14.3 | > 14.3 | > 14.3 | > 14.3 | > 14.3 | – | – | – | –
8 | CC(C)(C)c1cc(Nc2ncnc(Nc3cccc(CO)c3)n2)[nH]n1 [Compound 499] | – | – | 1.18 to 7.07 | – | 1.18 to 7.07 | > 13.3 | – | 1.18 to 7.07 | 1.18 to 7.07 | 1.18 to 7.07 | > 13.3
9 | CCOC(=O)C(Cc1cccc(Nc2ncnc(Nc3cc(-c4ccco4)n[nH]3)n2)c1)(NC(C)=O)C(=O)OCC [Compound 481] | – | – | > 8.2 | – | > 8.2 | > 8.2 | – | > 8.2 | 6.38 to 8.2 | 0.729 to 4.38 | > 8.2
10 | O=c1[nH]c2ccccc2n1-c1ncnc(Nc2cc(Cl)cc(Cl)c2)n1 [Compound 503] | – | – | > 12.1 | – | > 12.1 | > 12.1 | – | 9.38 to 12.1 | > 12.1 | > 12.1 | 9.38 to 12.1
11 | NC(=O)c1cccc(Nc2ncnc(-n3c(=O)[nH]c4ccccc43)n2)c1 [Compound 420] | > 13 | > 13 | > 13 | 1.15 to 6.91 | > 13 | > 13 | > 13 | – | – | – | –
12 | COc1cc(Nc2ncnc(-n3c(=O)sc4ccccc43)n2)cc(OC)c1OC [Compound 424] | > 10.9 | > 10.9 | > 10.9 | 5.83 to 8.51 | > 10.9 | > 10.9 | > 10.9 | – | – | – | –
